Results published in patent US11000601B2, “Conjugated biological molecules, pharmaceutical compositions and methods” (OBI Pharma, Inc., priority 2016, dated 2021).
“And” between values parts separate entries of the source, which are not always exact repeats. Equal entries are not always repeated. Marks after values point to notes of the source that are not given here. Square brackets hold non-standard residues; d marks the D form. Peptide text beside a SMILES is read from it. * marks the point of attachment. Dolaproine = CO[C@@H]([C@@H]1CCCN1)[C@@H](C)C(=O)O; Dil = CC[C@H](C)[C@H](NC)[C@@H](CC(=O)O)OC; X1 = C[C@@H](N*)[C@@H](O)c1ccccc1; NMeV = CN[C@H](C(=O)O)C(C)C

System: NCI-N87 (ATCC CRL-5822) human gastric carcinoma
Assay: Xenograft tumor model of human gastric carcinoma NCI-N87 in female nu/nu mice: tumor volume, T/C, TGI
Type: in vivo, mouse
Conditions: for Tumor Volume (mm^3), Mean / Tumor Volume (mm^3), individual animals / % T/C / % TGI / Tumor Volume, Mean / Tumor Volume, individual animal: 0.191 mg/kg × 4 IP once weekly; for Tumor Volume (mm^3), individual animals / Tumor Volume, individual animal: 0.191 mg/kg
Experimental: In a xenograft tumor model of human gastric carcinoma, viable NCI-N87 (ATCC CRL-5822) cells were subcutaneously (SC) implanted (2.5×10^6 cells/mL with matrigel (1:1) at 0.2 mL/mouse) into the right flank of female nu/nu mice. Tumor implanted mice were divided into seven treatment groups, each group containing eight animals, and one group containing five animals, and dose administrations were initiated one day after cell implantation (denoted as Day 1).
Viable human gastric carcinoma NCI-N87 (ATCC CRL-5822) cell line was purchased and cultured in Eurofins Panlabs Taiwan, Ltd. The cells were cultured in RPMI-1640 medium containing 10% fetal bovine serum (FBS) at 37° C. in 5% CO2 incubator and implanted subcutaneously in the right flank of each mouse.
Female nude (nu/nu) mice aged 5-6 weeks obtained from BioLasco Taiwan (under Charles River Laboratories Licensee) were used. The animals were housed in individually ventilated cages (IVC, 36 Mini Isolator system). The allocation for 3 animals was 27×20×14 in cm. All animals were maintained in a hygienic environment under controlled temperature (20-24° C.) and humidity (30%-70%) with 12-hour light/dark cycle. Free access to standard lab diet [MFG (Oriental Yeast Co., Ltd., Japan)] and autoclaved tap water in bottles were granted. All aspects of this work including housing, experimentation, and animal disposal were performed in general accordance with the “Guide for the Care and Use of Laboratory Animals: Eighth Edition” (National Academies Press, Washington, D.C., 2011) in our AAALAC-accredited laboratory animal facility. In addition, the animal care and use protocol was reviewed and approved by the IACUC at Eurofins Panlabs Taiwan, Ltd.
The tumor volumes, body weights, mortality, and signs of overt toxicity were monitored and recorded twice weekly for 100 days. Tumor growth inhibition was calculated as T/C (treatment/control)×100%. A T/C value≤42% compared to that of the vehicle control group was considered significant anti-tumor activity. Two-way ANOVA followed by Bonferroni test was used to ascertain the statistically significant significance of groups compared to respective vehicle control (*p<0.05).

CC[C@H](C)[C@@H]([C@@H](CC(=O)N1CCC[C@H]1[C@H](OC)[C@@H](C)C(=O)N[C@H](C)[C@@H](O)c1ccccc1)OC)N(C)C(=O)[C@@H](NC(=O)[C@@H](NC)C(C)C)C(C)C [MMAE, monomethyl auristatin E] (H-[NMeV]V[Dil][Dolaproine]-X1)
maximum percent TGI (0.191 mg/kg IP once weekly for four weeks, Day 53): 53% | anti-tumor activity (in words) (0.191 mg/kg IP once weekly for four weeks, over the course of the study): moderate anti-tumor activity | Tumor Volume (mm^3), Mean (Day 1): 96 mm^3 | Tumor Volume (mm^3), individual animals (Day 1): 61 mm^3 and 89 mm^3 and 83 mm^3 and 88 mm^3 (2×) and 125 mm^3 and 110 mm^3 and 121 mm^3 | % T/C (Day 4): 88% | % TGI (Day 4): 12% | Tumor Volume (mm^3), Mean (Day 4): 109 mm^3 | Tumor Volume (mm^3), individual animals (Day 4): 106 mm^3 and 102 mm^3 and 115 mm^3 (3×) and 104 mm^3 and 109 mm^3 | % T/C (Day 8): 83% | % TGI (Day 8): 17% | Tumor Volume (mm^3), Mean (Day 8): 122 mm^3 | Tumor Volume (mm^3), individual animals (Day 8): 117 mm^3 and 142 mm^3 and 127 mm^3 and 115 mm^3 and 110 mm^3 and 125 mm^3 and 119 mm^3 | % T/C (Day 11): 59% | % TGI (Day 11): 41% | Tumor Volume (mm^3), Mean (Day 11): 165 mm^3 | Tumor Volume (mm^3), individual animals (Day 11): 162 mm^3 and 158 mm^3 and 137 mm^3 and 169 mm^3 and 174 mm^3 and 187 mm^3 and 166 mm^3 | % T/C (Day 15): 60% | % TGI (Day 15): 40% | Tumor Volume (mm^3), Mean (Day 15): 189 mm^3 | Tumor Volume (mm^3), individual animals (Day 15): 153 mm^3 and 189 mm^3 (2×) and 178 mm^3 and 231 mm^3 and 175 mm^3 and 208 mm^3 | % T/C (Day 18): 57% | % TGI (Day 18): 43% | Tumor Volume (mm^3), Mean (Day 18): 218 mm^3 | Tumor Volume (mm^3), individual animals (Day 18): 152 mm^3 and 213 mm^3 and 234 mm^3 and 255 mm^3 and 231 mm^3 and 228 mm^3 and 211 mm^3 | % T/C (Day 22): 54% | % TGI (Day 22): 46% | Tumor Volume (mm^3), Mean (Day 22): 252 mm^3 | Tumor Volume (mm^3), individual animals (Day 22): 144 mm^3 and 201 mm^3 and 246 mm^3 and 303 mm^3 and 252 mm^3 and 322 mm^3 and 296 mm^3 | % T/C (Day 25): 53% | % TGI (Day 25): 47% | Tumor Volume (mm^3), Mean (Day 25): 277 mm^3 | Tumor Volume (mm^3), individual animals (Day 25): 146 mm^3 and 216 mm^3 and 259 mm^3 and 356 mm^3 and 315 mm^3 and 353 mm^3 and 296 mm^3 | % T/C (Day 29): 59% | % TGI (Day 29): 41% | Tumor Volume, Mean (Day 29): 371* mm^3 | Tumor Volume, individual animal (Day 29): 162 mm^3 and 277 mm^3 and 399 mm^3 and 406 mm^3 and 439 mm^3 and died and 525 mm^3 and 387 mm^3 | % T/C (Day 32): 54% | % TGI (Day 32): 46% | Tumor Volume, Mean (Day 32): 389* mm^3 | Tumor Volume, individual animal (Day 32): 160 mm^3 and 318 mm^3 and 397 mm^3 and 385 mm^3 and 446 mm^3 and died and 584 mm^3 and 432 mm^3 | % T/C (Day 36): 50% | % TGI (Day 36): 50% | Tumor Volume, Mean (Day 36): 406* mm^3 | Tumor Volume, individual animal (Day 36): 94 mm^3 and 345 mm^3 and 390 mm^3 and 389 mm^3 and 506 mm^3 and died and 658 mm^3 and 459 mm^3 | % T/C (Day 39): 47% | % TGI (Day 39): 53% | Tumor Volume, Mean (Day 39): 431* mm^3 | Tumor Volume, individual animal (Day 39): 94 mm^3 and 385 mm^3 and 407 mm^3 and 442 mm^3 and 530 mm^3 and died and 671 mm^3 and 487 mm^3 | % T/C (Day 43): 48% | % TGI (Day 43): 52% | Tumor Volume, Mean (Day 43): 477* mm^3 | Tumor Volume, individual animal (Day 43): 97 mm^3 and 414 mm^3 and 429 mm^3 and 489 mm^3 and 581 mm^3 and died and 780 mm^3 and 549 mm^3 | % T/C (Day 46): 51% | % TGI (Day 46): 49% | Tumor Volume, Mean (Day 46): 555* mm^3 | Tumor Volume, individual animal (Day 46): 91 mm^3 and 606 mm^3 and 535 mm^3 and 495 mm^3 and 719 mm^3 and died and 878 mm^3 and 561 mm^3 | % T/C (Day 50): 49% | % TGI (Day 50): 51% | Tumor Volume, Mean (Day 50): 589* mm^3 | Tumor Volume, individual animal (Day 50): 89 mm^3 and 623 mm^3 and 569 mm^3 and 550 mm^3 and 766 mm^3 and died and 936 mm^3 and 590 mm^3
